According to patent publication US11427553B2, “Dihydrooxadiazinones” (Bayer Aktiengesellschaft, priority 2017, dated 2022):

What was measured:
[1] = system: NCIH196 cells; test: Assay 2 cell proliferation measurement, H196; type: cell-based; details: Homo sapiens, NCI-H196, Lung small cell carcinoma, read-out: Anti-proliferation IC50 [nM] H196
Method: (§1) Cell Proliferation Measurement
(§2) The antiproliferative activity of the compounds of the general formula (I) was examined in vitro in human cancer cells. For this purpose, 500 cells, including HeLa cells, A2058 cells, DU145 cells, HMCB cells, IGR37 cells, NCIH1734 cells, OSRC2 cells, or 750 cells, including CAL51 cells, COL0741 cells, DBTRG05MG cells, DKMG cells, G292CLONEA141B1 cells, GB1 cells, HEL cells, HEL9217 cells, JHUEM1 cells, L3.3 cells, LI7 cells, TE4 cells, or 1000 cells, including 8505C cells, HUT78 cells, NCIH1563 cells, NCIH2122 cells, NCIH2172 cells, RVH421 cells, SKMEL3 cells, or 1500 cells, including C32 cells, HS578T cells, JHOM1 cells, NCIH196 cells, OVKATE cells, were plated in 384-well plates with appropriate growth medium and incubated at 37° C. overnight. After 24 h, the cells on the test plate were treated with the compounds of the general formula (I) as and incubated at 37° C. for 72 h. The compounds were added to the cells by means of an HP D300 digital dispenser in a 10 (or more)-step dilution series. As control, the cells were treated with vehicle (DMSO at 0.3% final concentration). After 72 h, the cells were treated with 20 μl/well of 50% CTG solution in PBS (Promega Cell Titer Glo (catalogue #G755B and G756B)) and incubated at room temperature for 10 min, and luminescence was measured by means of a VICTOR V (Perkin Elmer), in order to determine cell viability at the end of treatment. The percentage effect on cell growth and the IC50 derived therefrom were determined for each test substance using the values from untreated wells (=percent viability). The IC50 values were calculated using a 4-parameter fit.

[2] = system: HeLa cells; test: Assay 1 cell proliferation measurement (CTG, 72 h), HeLa; type: cell-based, human; details: Homo sapiens, HeLa; Assay 1, 72 h, Cell Titer Glo; read-out: HeLa IC50 [nM] (Cervical cancer)
Outline: (§3)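 Growth inhibition relative to a 0 h baseline plate and 0.3% DMSO control, with IC50 fitted by 4-parameter curve. Compound exposure lasted 72 h at 37 °C across a 2.5-fold, 10-step series starting generally at 100 nM final.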

[3] = system: SK-MEL-3 cells; test: Assay 1 cell proliferation measurement (CTG, 72 h), SK-MEL-3; type: cell-based, human; details: Homo sapiens, SK-MEL3; Assay 1, 72 h, Cell Titer Glo; read-out: SK-MEL-3 IC50 [nM] (melanoma)
Outline: as §3

[4] = system: L3.3 cells; test: Assay 2 cell proliferation measurement, L3.3; type: cell-based; details: Homo sapiens, Pancreas NS, read-out: Anti-proliferation IC50 [nM] L3.3
Method: as §1, §2

[5] = system: A2058 cells; test: Assay 2 cell proliferation measurement, A2058; type: cell-based; details: Homo sapiens, Melanoma, read-out: Anti-proliferation IC50 [nM] A2058
Method: as §1, §2

[6] = system: HeLa cells; test: Assay 2 cell proliferation measurement, HeLa; type: cell-based; details: Homo sapiens, Cervical, read-out: Anti-proliferation IC50 [nM] HeLa
Method: as §1, §2

[7] = system: C32 cells; test: Assay 2 cell proliferation measurement, C32; type: cell-based; details: Homo sapiens, Melanoma, read-out: Anti-proliferation IC50 [nM] C32
Method: as §1, §2

[8] = system: NCIH2172 cells; test: Assay 2 cell proliferation measurement, H2172; type: cell-based; details: Homo sapiens, NCI-H2172, Lung non small cell carcinoma, read-out: Anti-proliferation IC50 [nM] H2172
Method: as §1, §2

[9] = molecular target: human full length PDE3A (Homo sapiens (Human), UniProt Q14432); test: Assay 4 PDE3A enzyme inhibition (3H-cAMP SPA); type: biochemical; details: Sf9 cell extract
Outline: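 In this SPA format, the 60-min room-temperature reaction used 0.025 μCi [8-3H]cAMP and diluted full-length PDE3A from Sf9 cells. Percentage activity was plotted against log compound concentration to derive IC50.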

Chain of human full length PDE3A (Q14432 whole entry): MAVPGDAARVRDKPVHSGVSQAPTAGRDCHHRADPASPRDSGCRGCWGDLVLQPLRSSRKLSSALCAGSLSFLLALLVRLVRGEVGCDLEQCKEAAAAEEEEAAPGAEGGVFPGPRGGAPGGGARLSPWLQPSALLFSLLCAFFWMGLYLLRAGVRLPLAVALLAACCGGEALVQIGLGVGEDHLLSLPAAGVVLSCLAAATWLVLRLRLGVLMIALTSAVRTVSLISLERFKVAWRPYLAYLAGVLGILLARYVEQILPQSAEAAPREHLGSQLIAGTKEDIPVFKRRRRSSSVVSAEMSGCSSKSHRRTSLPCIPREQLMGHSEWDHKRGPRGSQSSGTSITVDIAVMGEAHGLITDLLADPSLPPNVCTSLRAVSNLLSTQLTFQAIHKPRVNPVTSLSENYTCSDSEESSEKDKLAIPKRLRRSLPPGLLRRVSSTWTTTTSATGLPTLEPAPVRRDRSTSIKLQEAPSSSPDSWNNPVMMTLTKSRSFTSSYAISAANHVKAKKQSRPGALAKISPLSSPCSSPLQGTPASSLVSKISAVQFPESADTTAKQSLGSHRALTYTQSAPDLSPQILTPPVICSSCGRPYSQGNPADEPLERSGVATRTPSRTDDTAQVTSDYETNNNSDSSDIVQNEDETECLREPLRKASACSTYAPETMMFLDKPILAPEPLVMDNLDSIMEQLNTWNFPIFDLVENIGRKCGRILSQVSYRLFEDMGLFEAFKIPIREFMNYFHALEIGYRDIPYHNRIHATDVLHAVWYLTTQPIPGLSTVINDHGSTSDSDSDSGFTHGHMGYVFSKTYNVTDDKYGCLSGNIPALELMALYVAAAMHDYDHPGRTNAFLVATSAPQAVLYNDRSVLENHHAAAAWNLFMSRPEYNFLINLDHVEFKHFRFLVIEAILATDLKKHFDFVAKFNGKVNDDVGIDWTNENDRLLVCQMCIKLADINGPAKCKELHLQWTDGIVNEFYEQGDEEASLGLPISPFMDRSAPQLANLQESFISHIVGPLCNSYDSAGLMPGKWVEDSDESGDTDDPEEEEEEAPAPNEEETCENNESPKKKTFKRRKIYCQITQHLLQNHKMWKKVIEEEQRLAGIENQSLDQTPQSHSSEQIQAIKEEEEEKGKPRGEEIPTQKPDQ

Row | Compound | IC50 [1] [nM] | IC50 [2] [nM] | IC50 [3] [nM] | IC50 [4] [nM] | IC50 [5] [nM] | IC50 [6] [nM] | IC50 [7] [nM] | IC50 [8] [nM] | IC50 [9] [nM]
1 | C[C@@H]1OC(=O)NN=C1c1ccc(-n2ccc(C(F)(F)F)n2)c(C(F)(F)F)c1 [Example 265, (6S)-6-Methyl-5-{3-(trifluoromethyl)-4-[3-(trifluoromethyl)-1H-pyrazol-1-yl]phenyl}-3,6-dihydro-2H-1,3,4-oxadiazin-2-one] | 355 | 2 | 5 | 312 | 96 | 5 | 132 | 101 | 
2 | O=C1NN=C(c2ccc(-c3cnn(C(F)F)c3)c(C(F)(F)F)c2)CO1 [Example 146, 5-{4-[1-(Difluoromethyl)-1H-pyrazol-4-yl]-3-(trifluoromethyl)phenyl}-3,6-dihydro-2H-1,3,4-oxadiazin-2-one] | 32 | 1 | 2 | 15 | 25 | 2 | 52 | 37 | 40
3 | O=C1NN=C(c2ccc(-c3ccc(Cl)cc3)c(C(F)(F)F)c2)CO1 [Example 31, 5-[4′-Chloro-2-(trifluoromethyl)biphenyl-4-yl]-3,6-dihydro-2H-1,3,4-oxadiazin-2-one] |  | 4 | 11 |  |  |  |  |  | 310
4 | O=C1NN=C(c2ccc(-c3ccc(F)cc3)c(C(F)(F)F)c2)CO1 [Example 3, 5-[4′-Fluoro-2-(trifluoromethyl)biphenyl-4-yl]-3,6-dihydro-2H-1,3,4-oxadiazin-2-one] |  | 3 | 7 |  |  |  |  |  | 285
5 | C[C@@H]1OC(=O)NN=C1c1ccc(-c2ccc(F)cc2)c(C(F)(F)F)c1 [Example 135, (6S)-5-[4′-Fluoro-2-(trifluoromethyl)biphenyl-4-yl]-6-methyl-3,6-dihydro-2H-1,3,4-oxadiazin-2-one] | 150 | 1 | 3 | 82 | 38 | 2 | 58 | 38 | 87
